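Five compound concentrations were applied to cells in 96-well plates for 48 hours; endpoints were derived by simple linear interpolation of the resulting dose-response curve. Definition used: TGI = concentration required for complete inhibition of growth.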
How the values were obtained:
Experiment in all cases: NCI tumour cell line growth inhibition, 48 h
CAKI-1 renal = system: CAKI-1 renal
HT29 colon = system: HT29 colon
NCI-H226 lung = system: NCI-H226 lung
HCT-15 colon = system: HCT-15 colon
KM12 colon = system: KM12 colon
CCRF-CEM leukemia = system: CCRF-CEM leukemia
U251 CNS = system: U251 CNS
COLO 205 colon = system: COLO 205 colon
UO-31 renal = system: UO-31 renal
NCI-H522 lung = system: NCI-H522 lung
SNB-75 CNS = system: SNB-75 CNS
UACC-62 melanoma = system: UACC-62 melanoma
DU-145 prostate = system: DU-145 prostate
K-562 leukemia = system: K-562 leukemia
MALME-3M melanoma = system: MALME-3M melanoma
HL-60(TB) leukemia = system: HL-60(TB) leukemia
EKVX NSCLC = system: EKVX NSCLC
SF-295 CNS = system: SF-295 CNS
PC-3 prostate = system: PC-3 prostate
NCI/ADR-RES ovarian = system: NCI/ADR-RES ovarian
UACC-257 melanoma = system: UACC-257 melanoma
TK-10 renal = system: TK-10 renal
SW-620 colon = system: SW-620 colon
SK-MEL-2 melanoma = system: SK-MEL-2 melanoma
SK-OV-3 ovarian = system: SK-OV-3 ovarian
MDA-N = system: MDA-N
A498 renal = system: A498 renal
RXF 393 renal = system: RXF 393 renal
OVCAR-8 ovarian = system: OVCAR-8 ovarian
HS 578T breast = system: HS 578T breast
HCT-116 colon = system: HCT-116 colon
786-0 renal = system: 786-0 renal
LOX IMVI melanoma = system: LOX IMVI melanoma
NCI-H460 lung = system: NCI-H460 lung
IGROV1 ovarian = system: IGROV1 ovarian
ACHN renal = system: ACHN renal
HOP-92 NSCLC = system: HOP-92 NSCLC
MDA-MB-231 breast = system: MDA-MB-231 breast
M14 melanoma = system: M14 melanoma
NCI-H23 lung = system: NCI-H23 lung
HCC-2998 colon = system: HCC-2998 colon
T-47D breast = system: T-47D breast
MDA-MB-435 = system: MDA-MB-435
BT-549 breast = system: BT-549 breast
MOLT-4 leukemia = system: MOLT-4 leukemia
SF-539 CNS = system: SF-539 CNS
HOP-62 NSCLC = system: HOP-62 NSCLC
OVCAR-3 ovarian = system: OVCAR-3 ovarian
SK-MEL-28 melanoma = system: SK-MEL-28 melanoma
SF-268 CNS = system: SF-268 CNS
RPMI-8226 leukemia = system: RPMI-8226 leukemia
A549 NSCLC = system: A549 NSCLC
SK-MEL-5 melanoma = system: SK-MEL-5 melanoma
MCF7 breast = system: MCF7 breast
OVCAR-5 ovarian = system: OVCAR-5 ovarian
SNB-19 CNS = system: SNB-19 CNS
SR leukemia = system: SR leukemia

Measured: TGI

CCOC(=O)c1ccc(NC(NC(=O)CC)(C(F)(F)F)C(F)(F)F)cc1
> 100 µM: all assays above

Source: PubChem BioAssay (NCI)
